# Assay results as given in US12673039B2, “Methods of inducing autophagy using coumarin derivatives and related compounds” (Buck Institute for Research on Aging, priority 2019, dated 2026).
# Columns and labels:
# [1] = tested on: TSC1+/− human neuronal SH-SY5Y cells; assay: TAU, phosphorylated-TAU, insoluble tau and viability in TSC1 mutant SH-SY5Y neuronal cells; format: cell-based
# Procedure: FIG. 8 A) Representative Western blot analysis of detergent-insoluble tau levels in control versus three independent TSC1-mutant SY5Y cell lines (A1, A3, A3A9) treated with 10 μM C1 (AIC106) versus vehicle. FIG. 8B) Quantitation of insoluble tau levels in control (Emty) versus mutant TSC1 lines treated with C1 (AIC106) versus vehicle (−). Values represent fold change versus vehicle-treated controls, *p<0.01.
# FIG. 23, panels A-H: FXR modulation enhances HLH-30 expression in human neuronal SH-SY5Y cells. Panel A) Effects of AIC106 on human FXR activity was determined in a mammalian one-hybrid based kit assay by quantifying changes in the luciferase activity of FXR ligand (GW4064, GW) induced treatment. [N=3 independent experiments (mean±SD). ****p<0.0001, by one-way ANOVA with Tukey's multiple comparisons test]. Panel B) Protein expression of TFEB, cathepsin-D (CAT-D) and small heterodimer partner-1 (SHP-1) was determined by immunoblot in neuronal SH-SY5Y cells post-24 hours of treatment with AIC106 and DMSO-control. Panel C) AIC106 enhances autophagic flux in neuronal SH-SY5Y cells. Autophagic flux in DMSO-control and AIC106 treated neuronal cells was determined by quantifying levels of autophagosome specific LC3-II protein both in presence and absence of autophagy inhibitor bafliomycin A1 (Baf A, 10 nM). Panel D) Relative fold change in the band intensity of LC3-II protein, normalized to loading control actin. Values are relative to DMSO-control. [N=3 independent experiments (mean±SD). *p<0.05 and ****p<0.0001, by one-way ANOVA with Tukey's multiple comparisons test]. Panel E) Effects of AIC106 treatment for 72 hours on basal TAU and phosphorylated-TAU in differentiated human neuronal SH-SHY5Y and heterozygous TSC1(+/−) mutant SH-SY5Y neuronal cells were quantitated by immunoblotting following total protein extraction. Relative fold change in the band intensity compared to SH-SY5Y control treatment for (panel F) total TAU and (panel G) phosphorylated-TAU, normalized to loading control GAPDH. [N=3 independent experiments (mean±SD). *p<0.05 and **p<0.01, by one-way ANOVA with Sidak's multiple comparisons test]. Panel H) AIC106 treatment improves viability and health of differentiated SH-SY5Y-TSC1(+/−) neuronal cells. Images were taken post-96 hours after treatment of differentiated neuronal cells with AIC106.
# The rat dopaminergic cell line 1RB3AN27 (N27) was grown in RPMI 1640 medium supplemented with 10% fetal calf serum (Invitrogen), 100 U/ml penicillin, and 100 μg/ml streptomycin. SH-SY5Y TSC1+/− lines were generated as described previously (Olney et al., 2017). […]
# [2] = tested on: TFEB; assay: qPCR of TFEB and downstream target genes in differentiated SY5Y cells; format: cell-based, human; conditions: qPCR (FIG. 6)
# Source text: Relative expression of TFEB and downstream target genes as assessed by qPCR from mRNA extracted from differentiated SY5Y cells treated with C1 (AIC106) versus vehicle-treated controls. Values represent fold induction versus controls, *p<0.01. Run in triplicate in 3 independent experiments.
# In vitro drug screening studies. […] We utilized for these studies a 3000 compound natural product derivative library (Timtec, Newark, DE) in […] transfected with a sensitive TFEB promotor-Gaussian luciferase construct. […] C1 is a coumarin-related compound, part of a family of natural benzopyrones found in many edible plants.
# [3] = TSC1+/− SH-SY5Y cells, 72 hours
structure (smiles),measurement,setting,value
"O=c1oc2c3c4c(cc2c2c1CCC2)CCCN4CCC3 [C1, 2,3,6,7,10,11-Hexahydro-1H,5H-cyclopenta(3,4)(1)benzopyrano(6,7,8-ij)quinolizin-12(9H)-one]",TAU levels,[1]; [3],without significantly changing TAU levels
same,phosphorylated-TAU,[1]; [3],decrease of phosphorylated-TAU
same,insoluble tau levels,"[1]; TSC1-mutant SY5Y cell lines, 10 μM C1 (FIG. 8)",reduce levels of insoluble tau levels
same,viability and general health of differentiated cells,"[1]; differentiated TSC1+/− SH-SY5Y cells, 96 hours",prevented loss in viability
same,TFEB expression,[2],significant dose-dependent elevations in TFEB expression
same,downstream TFEB target genes,[2],up-regulation of several downstream TFEB target genes
